Assay results from patent US4183940A, “Antimycotic imidazolyl-9,10-dihydro-anthracene derivatives” (Bayer Aktiengesellschaft, priority 1976, dated 1980).
≈ marks a conversion by molar mass, not a printed value.

Assays:
[1] = test system: Penicillium commune; assay: Antimycotic in vitro activity (series dilution test), Penicillium commune; type: cell-based; settings: Sabouraud's milieu d'epreuve, 28° C., 24 to 96 hours; for MIC: Penicillium commune, read-out: MIC values in γ/ml of nutrient medium for Penicillium commune
Experimental: (§1) The invitro tests were carried out in a series dilution test with germ inocula of an average of 5×10^4 germs/ml of substrate. The nutrient medium was (a) for dermatophytes and moulds: Sabouraud's milieu d 'epreuve and (b) for yeasts: meat extract/glucose broth. The incubation temperature was 28° C. and the duration of incubation was 24 to 96 hours.

[2] = test system: Microsporon felineum; assay: Antimycotic in vitro activity (series dilution test), Microsporon felineum; type: cell-based; settings: Sabouraud's milieu d'epreuve, 28° C., 24 to 96 hours; for MIC: read-out: MIC values in γ/ml of nutrient medium for Microsporon felineum
Experimental: as §1

[3] = test system: Trichophyton mentagrophytes; assay: Antimycotic in vitro activity (series dilution test), Trichophyton mentagrophytes; type: cell-based; settings: Sabouraud's milieu d'epreuve, 28° C., 24 to 96 hours; for MIC: Trichophyton mentagrophytes, read-out: MIC values in γ/ml of nutrient medium for Trichophyton mentagrophytes
Experimental: as §1

[4] = test system: Aspergillus species; assay: Antimycotic in vitro activity (series dilution test), Aspergillus species; type: cell-based; settings: Sabouraud's milieu d'epreuve, 28° C., 24 to 96 hours; for MIC: Aspergillus, read-out: MIC values in γ/ml of nutrient medium for Aspergillus species
Experimental: as §1

[5] = test system: Candida albicans; assay: Antimycotic in vitro activity (series dilution test), Candida albicans; type: cell-based; settings: meat extract/glucose broth, 28° C., 24 to 96 hours; for MIC: Candida albicans, read-out: MIC values in γ/ml of nutrient medium for Candida albicans
Experimental: as §1

[6] = test system: Candida; assay: Antimycotic in vivo activity (oral) in candidosis of mice; design: key: +++++: very good action=≥90% of survivors on the 6th day after infection; ++++: good action=≥80% of survivors on the 6th day after infection; +++: action=≥60% of survivors on the 6th day after infection; ++: poor action=≥40% of survivors on the 6th day after infection; +: trace of action; n.a.: no action; settings: mice SPF-CF1, i.v. infection with Candida, 100 mg/kg oral one hour before and seven hours after infection
Experimental: Mice of the type SPF-CF1 were infected intravenously with 1-2×10^6 logarithmically growing Candida cells, which were suspended in physiological sodium chloride solution. The animals were treated orally one hour before and seven hours after the infection with, in each case, 100 mg/kg of body weight of the formulations.
Untreated animals died from the infection 2 to 6 days after infection. The survival rate on the 6th day after infection was about 5% in the case of the untreated control animals.

Row | Compound | MIC values in γ/ml of nutrient medium for Penicillium commune [1] | MIC values in γ/ml of nutrient medium for Microsporon felineum [2] | MIC values in γ/ml of nutrient medium for Trichophyton mentagrophytes [3] | MIC values in γ/ml of nutrient medium for Aspergillus species [4] | MIC values in γ/ml of nutrient medium for Candida albicans [5] | MIC [1] | MIC [2] | MIC [3] | MIC [4] | MIC [5] | Action (survivors on the 6th day after infection) [6]
1 | O=C1c2ccccc2C(c2ccccc2)(n2ccnc2)c2ccccc21 [drawing 21] | 8 µg/mL | 4 µg/mL | < 1 µg/mL | 32 µg/mL | > 64 µg/mL | – | – | – | – | – | –
2 | CSc1ccc(C2(n3ccnc3)c3ccccc3CCc3ccccc32)cc1 [reference compound] | – | – | – | – | – | > 100 µg/mL | 40 µg/mL (≈ 105 µM) | 10 µg/mL (≈ 26.1 µM) | > 100 µg/mL | – | –
3 | CSc1ccc(C2(n3ccnc3)c3ccccc3-c3ccccc32)cc1 [reference compound] | – | – | – | – | – | > 100 µg/mL | 20 µg/mL (≈ 56.4 µM) | < 4 µg/mL | > 100 µg/mL | 100 µg/mL (≈ 282 µM) | –
4 | c1ccc(C2(n3ccnc3)c3ccccc3C(c3ccccc3)(n3ccnc3)c3ccccc32)cc1 (stereo not drawn) [drawing 32] | – | – | – | – | – | – | – | – | – | – | ++ (poor action=≥40% of survivors on the 6th day after infection)
5 | Cc1ccccc1C1(n2ccnc2)c2ccccc2C(=O)c2ccccc21 [drawing 35] | – | – | – | – | – | – | – | – | – | – | +
6 | c1ccc(C2(n3ccnc3)c3ccccc3C(c3ccccc3)(n3ccnc3)c3ccccc32)cc1 (stereo not drawn) [drawing 26] | – | – | – | – | – | > 64 µg/mL | – | 32 µg/mL (≈ 68.9 µM) | – | 4 µg/mL (≈ 8.61 µM) | –
7 | O=C1c2ccccc2C(c2ccccc2)(n2ccnc2)c2ccccc21 [drawing 18] | – | 8 µg/mL | – | 4 µg/mL | 4 µg/mL | 4 µg/mL (≈ 11.9 µM) | – | < 1 µg/mL | – | – | –
8 | Cc1ccccc1C1(n2ccnc2)c2ccccc2C(=O)c2ccccc21 [drawing 22] | > 64 µg/mL | – | – | – | – | – | < 1 µg/mL | < 1 µg/mL | > 64 µg/mL | > 64 µg/mL | –
9 | O=C1c2ccccc2C(c2ccccc2)(n2ccnc2)c2ccccc21 [drawing 31] | – | – | – | – | – | – | – | – | – | – | +++ (action=≥60% of survivors on the 6th day after infection)
10 | Cc1ccccc1C1(n2ccnc2)c2ccccc2C(=O)c2ccccc21 [drawing 23] | 4 µg/mL | 1 µg/mL | < 1 µg/mL | > 64 µg/mL | 32 µg/mL | – | – | – | – | – | –
11 | O=C1c2ccccc2C(c2ccccc2)(n2ccnc2)c2ccccc21 [drawing 20] | 8 µg/mL | 4 µg/mL | < 1 µg/mL | 64 µg/mL | > 64 µg/mL | – | – | – | – | – | –
12 | c1ccc(C2(n3ccnc3)c3ccccc3Sc3ccccc32)cc1 [reference compound] | – | – | – | – | – | > 100 µg/mL | > 100 µg/mL | > 100 µg/mL | – | 40 µg/mL (≈ 117 µM) | –
13 | c1ccc(C2(n3ccnc3)c3ccccc3Oc3ccccc32)cc1 [reference compound] | – | – | – | – | – | 100 µg/mL (≈ 308 µM) | > 100 µg/mL | > 100 µg/mL | – | 20 µg/mL (≈ 61.7 µM) | –
14 | O=C1c2ccccc2C(c2ccccc2)(n2ccnc2)c2ccccc21 [drawing 19] | 8 µg/mL | < 1 µg/mL | < 1 µg/mL | 32 µg/mL | 8 µg/mL | – | – | – | – | – | –
15 | Cc1ccc(C2(n3ccnc3)c3ccccc3C(=O)c3ccccc32)cc1 [drawing 25] | 8 µg/mL | 4 µg/mL | < 1 µg/mL | > 64 µg/mL | > 64 µg/mL | – | – | – | – | – | –
16 | Cc1ccc(C2(n3ccnc3)c3ccccc3C(=O)c3ccccc32)cc1 [drawing 24] | 64 µg/mL | – | – | – | – | – | 8 µg/mL (≈ 22.8 µM) | < 1 µg/mL | > 64 µg/mL | 64 µg/mL (≈ 183 µM) | –
